Experimental data from patent publication US20030166922A1, “Novel cephalosporin compounds and process for preparing the same” (priority 2000, published 2003).
In brackets after ≈: the same amount, converted by molar mass. Like-named read-outs stand apart in the source and are kept apart here.

Key:
Assay in all cases: Minimum Inhibitory Concentration (MIC), agar dilution, standard strains
[1] = system: S. aureus 77; assay type: cell-based, Staphylococcus aureus; details: Mueller-Hinton agar, 37° C., 20 hours; for MIC: Staphylococcus aureus, 77, read-out: Minimum Inhibitory Concentration (MIC), S. aureus 77
Description: (§1) Minimum Inhibitory Concentration (MIC)
(§2) The effectiveness of the compound according to the present invention was determined by obtaining Minimum Inhibitory Concentration (MIC) of the compounds prepared by the above Examples (I-1 to I-33) and vancomycin, which is the known compound having a potent activity against gram-positive strains, as the control drug against the standard strains. Specifically, Minimum Inhibitory Concentration was obtained by diluting the test material with a double dilution method, dispersing them in Mueller-Hinton agar medium, inoculating each of the test strain having 10^7 cfu (colny forming unit) in an amount of 2:1 to the medium and then incubating them at 37° C. for 20 hours.

[2] = system: S. aureus 241; assay type: cell-based, Staphylococcus aureus; details: Table 1, Mueller-Hinton agar, 37° C., 20 hours; for MIC: Staphylococcus aureus, 241, read-out: Minimum Inhibitory Concentration (MIC), S. aureus 241
Description: as §1, §2

[3] = system: Staphylococcus aureus giorgio; assay type: cell-based; details: Mueller-Hinton agar, 37° C., 20 hours; for MIC: Staphylococcus aureus, read-out: Minimum Inhibitory Concentration (MIC), Staphylococcus aureus giorgio; for MIC / Minimum Inhibitory Concentration (MIC), Staphylococcus aureus giorgio: Table 1; for Minimum Inhibitory Concentration (MIC), S. aureus giorgio: Table 2
Description: as §1, §2

[4] = system: S. epidermidis R005; assay type: cell-based; details: Mueller-Hinton agar, 37° C., 20 hours; for MIC: Staphylococcus epidermidis, R005, read-out: Minimum Inhibitory Concentration (MIC), S. epidermidis R005
Description: as §1, §2

[5] = system: E. faecalis L239; assay type: cell-based; details: Table 1, Mueller-Hinton agar, 37° C., 20 hours; for MIC: Enterococcus faecalis, L239, read-out: Minimum Inhibitory Concentration (MIC), E. faecalis L239
Description: as §1, §2

[6] = system: S. aureus K311; assay type: cell-based, Staphylococcus aureus; details: Table 2; Mueller-Hinton agar, 37° C., 20 hours
Description: as §1, §2

[7] = system: E. faecalis EFS004; assay type: cell-based; details: Table 2; Mueller-Hinton agar, 37° C., 20 hours
Description: as §1, §2

Row | Compound | Minimum Inhibitory Concentration (MIC), S. aureus 77 ([1]; Table 1) | Minimum Inhibitory Concentration (MIC), S. aureus 241 [2] | Minimum Inhibitory Concentration (MIC), Staphylococcus aureus giorgio [3] | Minimum Inhibitory Concentration (MIC), S. epidermidis R005 ([4]; Table 1) | Minimum Inhibitory Concentration (MIC), E. faecalis L239 [5] | Minimum Inhibitory Concentration (MIC), S. aureus K311 [6] | MIC ([1]; Table 2) | Minimum Inhibitory Concentration (MIC), S. aureus giorgio [3] | MIC ([4]; Table 2) | Minimum Inhibitory Concentration (MIC), E. faecalis EFS004 [7] | further results
1 | Nc1ncnc(SCSC2=C(C(=O)O)N3C(=O)[C@@H](NC(=O)CSc4cc(Cl)ccc4Cl)[C@H]3SC2)c1N [Example I-17, (6R,7R)-3-({[(5,6-diamino-4-pyrimidinyl)sulfanyl]methyl}sulfanyl)-7-({2-[(2,5-dichlorophenyl)sulfanyl]acetyl}amino)-8-oxo-5-thia-1-azabicyclo[4.2.0]oct-2-ene-2-carboxylic acid] | – | – | – | – | – | – | – | – | – | – | MIC ([1]; Table 1): 0.13 µg/mL (≈ 0.215 µM); MIC [2]: 2 µg/mL (≈ 3.3 µM); MIC [3]: 0.016 µg/mL (≈ 0.0264 µM); MIC ([4]; Table 1): 0.25 µg/mL (≈ 0.413 µM); MIC [5]: 0.5 µg/mL (≈ 0.826 µM)
2 | Cc1c(N)nc(SCSC2=C(C(=O)O)N3C(=O)[C@@H](NC(=O)CSc4cc(Cl)ccc4Cl)[C@H]3SC2)nc1N [Example I-18, (6R,7R)-3-({[(4,6-diamino-5-methyl-2-pyrimidinyl)sulfanyl]methyl}sulfan-yl)-7-({2-[(2,5-dichlorophenyl)sulfanyl]acetyl}amino)-8-oxo-5-thia-1-azabicyclo[4.2.0]oc-t-2-ene-2-carb oxylic acid] | 0.25 :g/ml | 4 :g/ml | 0.016 :g/ml | 0.25 :g/ml | 0.5 :g/ml | – | – | – | – | – | –
3 | CNc1[n+](C)c(N)nc(SCSC2=C(C(=O)O)N3C(=O)[C@@H](NC(=O)CSc4cc(Cl)ccc4Cl)[C@H]3SC2)[n+]1N [Example I-19, (6R,7R)-1,4-diamino-6-[({[2-carboxy-7-({2-[(2,5-dichlorophenyl)sulfany-1]acetyl}amino)-8-oxo-5-thia-1-azabicyclo[4.2.0]oct-2-en-3-yl]sulfanyl}methyl)sulfanyl]-3-methyl-2-(methylamino)-1,3,5-triazine-1,3-diium] | 4 :g/ml | 32 :g/ml | 0.063 :g/ml | 2 :g/ml | 4 :g/ml | – | – | – | – | – | –
4 | CSc1nc(C)cc(SCSC2=C(C(=O)O)N3C(=O)[C@@H](NC(=O)CSc4cc(Cl)ccc4Cl)[C@H]3SC2)n1 [Example I-22, (6R,7R)-7-({2-[(2,5-dichlorophenyl)sulfanyl]acetyl}amino)-3-[({[6-methyl-2-(methylsulfanyl)-4-pyrimidinyl]sulfanyl}methyl)sulfanyl]-8-oxo-5-thia-1-azabicyclo[4.2. 0]oct-2-ene-2-carboxylic acid] | – | – | – | – | – | – | – | – | – | – | MIC ([1]; Table 1): 0.5 µg/mL (≈ 0.787 µM); MIC [2]: 4 µg/mL (≈ 6.29 µM); MIC [3]: < 0.008 µg/mL; MIC ([4]; Table 1): 0.25 µg/mL (≈ 0.393 µM); MIC [5]: 0.25 µg/mL (≈ 0.393 µM)
5 | Cc1c(N)nc([S+]([O-])CSC2=C(C(=O)O)N3C(=O)[C@@H](NC(=O)CSc4cc(Cl)ccc4Cl)[C@H]3SC2)[n+](N)c1N (stereo partly drawn) [Example I-23, (6R,7R)-1,4,6-triamino-2-[({[(2-carboxy-7-({2-[(2,5-dichlorophenyl)sulfan-yl]acetyl}amino)-8-oxo-5-thia-1-azabicyclo[4.2.0]oct-2-en-3-yl)]sulfanyl}methyl)sulfin-yl]-5-methylpyri midin-1-ium] | 8 :g/ml | >32 :g/ml | 0.5 :g/ml | 8 :g/ml | 16 :g/ml | – | – | – | – | – | –
6 | Nc1cc(SCSC2=C(C(=O)O)N3C(=O)[C@@H](NC(=O)CSc4cc(Cl)nc(Cl)c4)[C@H]3SC2)nc(N)n1 [Example I-24, (6R,7R)-3-({[(2,6-diamino-4-pyrimidinyl)sulfanyl]methyl}sulfanyl)-7-({2-[(2,6-dichloro-4-pyridinyl)sulfanyl]acetyl}amino)-8-oxo-5-thia-1-azabicyclo[4.2.0]oct-2-ene-2-carboxylic acid] | – | – | – | – | – | 0.5 :g/ml | 0.25 µg/mL (≈ 0.412 µM) | 0.016 :g/ml | 0.25 µg/mL (≈ 0.412 µM) | 0.5 :g/ml | –
7 | Nc1cc(N)nc(SCSC2=C(C(=O)O)N3C(=O)[C@@H](NC(=O)CSc4cc(Cl)nc(Cl)c4)[C@H]3SC2)n1 [Example I-25, (6R,7R)-3-({[(4,6-diamino-2-pyrimidinyl)sulfanyl]methyl}sulfanyl)-7-({2-[(2,6-dichloro-4-pyridinyl)sulfanyl]acetyl}amino)-8-oxo-5-thia-1-azabicyclo[4.2.0]oct-2-ene-2-carboxylic acid] | – | – | – | – | – | 0.5 :g/ml | 0.25 µg/mL (≈ 0.412 µM) | 0.016 :g/ml | 0.25 µg/mL (≈ 0.412 µM) | 0.5 :g/ml | –
8 | Nc1nc(SCSC2=C(C(=O)O)N3C(=O)[C@@H](NC(=O)CSc4cc(Cl)nc(Cl)c4)[C@H]3SC2)nc2[nH]ncc12 [Example I-26, (6R,7R)-3-({[(4-amino-1H-pyrazolo[3 ,4-d]pyrimidin-6-yl)sulfanyl]methy-1}sulfanyl)-7-({2-[(2,6-dichloro-4-pyridinyl)sulfanyl]acetyl}amino)-8-oxo-5-thia-1-azabi-cyclo[4.2.0]oct-2-ene-2-carboxylic acid] | – | – | – | – | – | 0.5 :g/ml | – | 0.016 :g/ml | – | 0.5 :g/ml | Minimum Inhibitory Concentration (MIC), S. aureus 77 ([1]; Table 2): 0.25 :g/ml; Minimum Inhibitory Concentration (MIC), S. epidermidis R005 ([4]; Table 2): 0.25 :g/ml
9 | O=C(CSc1cc(Cl)nc(Cl)c1)N[C@@H]1C(=O)N2C(C(=O)O)=C(SCSc3ncnc4[nH]ncc34)CS[C@H]12 [Example I-27, (6R,7R)-7-({2-[(2,6-dichloro-4-pyridinyl)sulfanyl]acetyl}amino)-8-oxo-3-{[(1H-pyrazolo[3,4-d]pyrimidin-4-yl-sulfanyl)methyl]sulfanyl}-5-thia-1-azabicyclo[4.2. 0]oct-2-ene-2-carboxylic acid] | – | – | – | – | – | 0.5 :g/ml | 0.25 µg/mL (≈ 0.405 µM) | 0.13 :g/ml | 0.25 µg/mL (≈ 0.405 µM) | 0.5 :g/ml | –
10 | Nc1nc(O)cc(SCSC2=C(C(=O)O)N3C(=O)[C@@H](NC(=O)CSc4cc(Cl)nc(Cl)c4)[C@H]3SC2)n1 [Example I-28, (6R,7R)-3-({[(2-amino-6-hydroxy-4-pyrimidinyl)sulfanyl]methyl}sulfanyl)-7-({2-[(2,6-dic hloro-4-pyridinyl)sulfanyl]acetyl}amino)-8-oxo-5-thia-1-azabicyclo[4.2.0]-oct-2-ene-2-car boxylic acid] | – | – | – | – | – | 0.5 :g/ml | 0.25 µg/mL (≈ 0.411 µM) | 0.031 :g/ml | 0.25 µg/mL (≈ 0.411 µM) | 1 :g/ml | –
11 | CCSc1nc(C)cc(SCSC2=C(C(=O)O)N3C(=O)[C@@H](NC(=O)CSc4cc(Cl)nc(Cl)c4)[C@H]3SC2)n1 [Example I-29, (6R,7R)-7-({2-[(2,6-dichloro-4-pyridinyl)sulfanyl]acetyl}amino)-3-[({[2-(ethylsulfanyl)-6-methyl-4-pyrimidinyl]sulfanyl)methyl]sulfanyl}-8-oxo-5-thia-1-azabicy-clo[4.2.0]oct-2-ene-2-carboxylic acid] | – | – | – | – | – | 2 :g/ml | – | 0.031 :g/ml | – | 0.25 :g/ml | Minimum Inhibitory Concentration (MIC), S. aureus 77 ([1]; Table 2): 0.5 :g/ml; Minimum Inhibitory Concentration (MIC), S. epidermidis R005 ([4]; Table 2): 1 :g/ml
12 | (6R,7R)-2,4-diamino-6-[({[2-carboxy-7-({2-[(2,5-dichlorophenyl)sulfany-1]acetyl}amino)-8-oxo-5-thia-1-azabicyclo[4.2.0]oct-2-en-3-yl]sulfanyl}methyl)sulfanyl]-1-ethyl-1,3,5-tria zine-1,3-diium [Example I-20] | 1 :g/ml | 8 :g/ml | <0.008 :g/ml | 0.5 :g/ml | 0.5 :g/ml | – | – | – | – | – | –
13 | (6R,7R)-2,4-diamino-6-[({[2-carboxy-7-({2-[(2,5-dichlorophenyl)sulfany-1]acetyl}amino)-8-oxo-5-thia-1-azabicyclo[4.2.0]oct-2-en-3-yl]sulfanyl}methyl)sulfanyl]-1-methylpyrimidi n-1-ium [Example I-15] | 0.13 :g/ml | 1 :g/ml | <0.008 :g/ml | 0.13 :g/ml | 0.25 :g/ml | – | – | – | – | – | –
